Columns and labels:
Format in all cases: in vivo
C3H male mice = assay: Hair growth test on shaved backs of mice; details: for Hair growth state 2 weeks after application: 20 μL on shaved back, mice with hair growth / mice
Description: The FCG obtained in Production Example 1, the SCG obtained in Production Example 2, the CSG obtained in Production Example 3, and the RSG obtained in Production Example 4 were each dissolved, in 70% by mass ethanol water, and the following solutions were prepared:
Furthermore, commercially available cholesterol (hereinafter, abbreviated as “Cho”) was dissolved in 70% by mass ethanol water to prepare a Cho 10 pg/mL solution.
The body hair on the back of 8 to 9-week-old C3H male mice was shaved using an electric clippers for animal use (“Thrive clipper, Model 600AD” manufactured by Daito Electric Company) together with a rotary shaver (National ES611).
Each of the sample solutions (20 μL) was applied in four portions to the skin in central parts of the shaved backs of mice while repeating air drying. The application was conducted 24 hours after shaving.
The hair growth effect was evaluated 2 weeks after the application of the sample solution on the basis of observation with the naked eye and photographs taken by a digital camera. Furthermore, as controls, mice applied with 70% by mass ethanol water and mice not applied with a sample solution were used.

head hair = assay: Hair growth effect on human head hair; details: person
Description: (§1) The hair growth effect of FCG on head hair of a person was examined.
After hair was thoroughly washed and dried completely with a dryer, about 3.5 mL of a 70% by mass aqueous ethanol solution (sample solution) containing FCG at a concentration of 10 pg/mL was evenly applied, to the scalp once a day.
Before use of the sample solution and 4 months after start of use, photographs were taken by a digital camera from the forehead and the top of head.
as §1
After hair was thoroughly washed and naturally dried completely, about 3.5 mL of a 70% by mass aqueous ethanol solution (sample solution) containing FCG at a concentration of 10 pg/mL was evenly applied to the scalp once a day.
On the date of start of use of the sample solution and 5 months after start of use, photographs of the forehead and the top of head were taken by a digital camera.

[1] = test system: Hsp70 (heat shock protein 70); assay: Preliminary test for hair growth using mice, Hsp70 immunostaining of skin; details: 10 pg/mL, 3 hours after application; hair papilla cells of hair root in telogen
Description: (§2) A 70% by mass aqueous ethanol solution containing FCG obtained in Production Example 1 at a concentration of 10 pg/mL (sample solution) was prepared.
(§3) The sample solution (20 μL) was applied onto the shaved back skin of four 9-week-old ICR male mice, and skin was collected after 3 hours and after 6 hours.
(§4) The skin was subjected to immunostaining for bFGF (basic fibroblast growth factor), Hsp70 (heat shock protein 70), and VEGF (vascular endothelial cell growth factor) by the fluorescent antibody technique and HE staining (hematoxylin-eosin staining), and samples of 14 μm-thick cryostat sections were prepared.

[2] = test system: VEGF (vascular endothelial cell growth factor); assay: Preliminary test for hair growth using mice, VEGF immunostaining of skin; details: 10 pg/mL, 3 hours after application
Description: as §2, §3, §4

[3] = test system: bFGF (basic fibroblast growth factor); assay: Preliminary test for hair growth using mice, bFGF immunostaining of skin
Description: as §2, §3, §4

[4] = test system: shaved back skin of ICR male mice; assay: Preliminary test for hair growth using mice, HE staining of skin; details: 10 pg/mL, 20 μL
Description: as §2, §3, §4

[5] = C3H mice, 2 weeks after application
[6] = 10 pg/mL, about 3.5 mL once a day, 5 months after start of use
[7] = 10 pg/mL, 6 hours after application

SMILES	Hair growth state 2 weeks after application (C3H male mice; 10 pg/mL in 70% ethanol water)	Hair growth action (summary of Table 1) (C3H male mice; [5])	Hair growth on forehead and top of head (head hair; 10 pg/mL, about 3.5 mL once a day, 4 months after start of use)	Hair growth on forehead (head hair; [6])	Hair growth on top of head (head hair; [6])	Side effects (head hair; one year after start of use)	Hsp70 expression (immunostaining) [1]	VEGF expression (immunostaining) [2]	bFGF expression (immunostaining) ([3]; 10 pg/mL, 3 hours after application, hair follicle, epidermis, bulge region, external root sheath, erector pili muscles)	bFGF expression in erector pili muscles (immunostaining) [3, 7]	bFGF expression in hair papilla cells (immunostaining) [3, 7]	bFGF expression, conclusion ([3]; epidermis, external root sheath, bulge region, hair matrix)	Hair growth state 2 weeks after application (C3H male mice; 1 pg/mL in 70% ethanol water)	Hair growth state 2 weeks after application (C3H male mice; 100 pg/mL in 70% ethanol water)	Death of mice during hair growth test (C3H male mice; 100 pg/mL, 2 weeks after application)	Hair growth action at 1 pg/mL compared with 10 pg/mL (C3H male mice; [5])	HE staining, hair root and hair bulb ([4]; 3 hours after application, one of two mice)	HE staining, hair root ([4]; 6 hours after application)
CC(C)CCC[C@@H](C)[C@H]1CC[C@H]2[C@@H]3CC=C4C[C@@H](O)CC[C@]4(C)[C@H]3CC[C@]12C [Cho, cholesterol, reference compound]	4/8	weak																
CC(C)CCC[C@@H](C)[C@H]1CC[C@H]2[C@@H]3CC=C4C[C@@H](O[C@@H]5O[C@H](CO)[C@@H](O)[C@H](O)[C@H]5O)CC[C@]4(C)[C@H]3CC[C@]12C [FCG, cholesteryl glucopyranoside]	4/8		a large amount of hair growth was observed	hair growth was observed	a good amount of hair growth was observed	side effects are not recognized	Weak to moderate expression of Hsp70 was detected	VEGF positive reaction was found in hair papilla cells in the hair matrix	Strong expression of bFGF was detected	reduced to moderate	became weak	expression of bFGF is induced	6/8	5/7	one mouse died	higher	local extension of the hair root and enlargement of the hair bulb were observed	Most of the hair roots extended to the subcutaneous tissue
CC(C)CCC[C@@H](C)[C@H]1CC[C@H]2[C@@H]3CC=C4C[C@@H](O[C@@H]5O[C@H](CO)[C@@H](O)[C@H](O)[C@H]5O)CC[C@]4(C)[C@H]3CC[C@]12C [SCG, cholesteryl-β-D-glucopyranoside]	⅝	same hair growth action as that of the cholesteryl glucopyranoside derived from feathers (FCG)											6/8	⅜				

— patent publication US9974727B2, “Hair growth and hair restoration material” (INSTITUTE OF RHEOLOGICAL FUNCTION OF FOOD CO., LTD., priority 2011, dated 2018)
